This note sets out measurements from US20110124653A1, “ARYL-SULPHONAMIDIC DIMERS AS METALLOPROTEASES INHIBITORS” (BRACCO IMAGING S.P.A., priority 2008, published 2011).

The term IC50 denotes the concentration at which inhibition is half-maximal. A lower IC50 goes with greater potency.

Common to all, as to assay: MMP inhibition assay, fluorogenic substrate FS-6
What all share (format): biochemical
Settings in all cases: substrate FS-6 (Mca-Lys-Pro-Leu-Gly-Leu-Dpa-Ala-Arg-NH2), enzyme and inhibitor incubated 4 h at 25° C., triplicate

One experiment addresses MMP-13 (Homo sapiens, UniProt P45452). Here is the method:
(§1) As reported therein, the inhibitory activity of the compounds of the invention was evaluated on the known fluorogenic substrate (Mca-Lys-Pro-Leu-Gly-Leu-Dpa-Ala-Arg-NH2), shortly referred to as FS-6 (see, as a reference, U. Neumann, Analytical Biochem. 2004, 328, 166-173).
(§2) Recombinant human pro-MMP-2 was supplied by Prof. Gillian Murphy (Department of Oncology, University of Cambridge, UK), while pro-MMP-13 and pro-MMP-14 were purchased from Calbiochem. […] Pro-MMP-14 was activated with trypsin 5 μg/ml for 15 min at 37° C. followed by soybean trypsin inhibitor (SBTI) 23 μg/ml. For assay measurements, the inhibitor stock solutions (DMSO, 100 mM) were further diluted, at seven different concentrations (0.01 nM-100 μM) for each MMP in the fluorimetric assay buffer (FAB: Tris 50 mM, pH=7.5, NaCl 150 mM, CaCl2 10 mM, Brij 35 0.05% and DMSO 1%). Activated enzyme (final concentration 2.9 nM for MMP-2, 1 nM for MMP-14, 0.33 nM for MMP-13) and inhibitor solutions were incubated in the assay buffer for 4 h at 25° C. After the addition of 200 μM solution of the fluorogenic substrate Mca-Lys-Pro-Leu-Gly-Leu-Dpa-Ala-Arg-NH2 (Bachem) (see, for a reference, Neumann, U.; Kubota, H.; Frei, K.; Ganu, V.; Leppert, D. Anal. Biochem. 2004, 328, 166) for all of the enzymes in DMSO (final concentration 2 μM), the hydrolysis was monitored every 15 sec. for 20 min recording the increase in fluorescence (λex=325 nm, λem=395 nm) using a Molecular Device SpectraMax Gemini XS plate reader.
(§3) The assays were performed in triplicate, in a total volume of 200 μl per well, in 96-well microtitre plates (Corning, black, NBS). Control wells lack inhibitor. The MMP inhibition activity was expressed in relative fluorescent units (RFU). Percent of inhibition was calculated from control reactions without the inhibitor. IC50 was determined using the formula: Vi/Vo=1/(1+[I]/IC50), where Vi is the initial velocity of substrate cleavage in the presence of the inhibitor at concentration [I] and Vo is the initial velocity in the absence of the inhibitor. Results were analyzed using SoftMax Pro software and GraFit software.

The next experiment deals with T1, MMP-2 (Homo sapiens, UniProt P08253).
T1 construct: Prof; Gillian Murphy (Department of Oncology, University of Cambridge, UK)
T1 sequence (P08253 110-660): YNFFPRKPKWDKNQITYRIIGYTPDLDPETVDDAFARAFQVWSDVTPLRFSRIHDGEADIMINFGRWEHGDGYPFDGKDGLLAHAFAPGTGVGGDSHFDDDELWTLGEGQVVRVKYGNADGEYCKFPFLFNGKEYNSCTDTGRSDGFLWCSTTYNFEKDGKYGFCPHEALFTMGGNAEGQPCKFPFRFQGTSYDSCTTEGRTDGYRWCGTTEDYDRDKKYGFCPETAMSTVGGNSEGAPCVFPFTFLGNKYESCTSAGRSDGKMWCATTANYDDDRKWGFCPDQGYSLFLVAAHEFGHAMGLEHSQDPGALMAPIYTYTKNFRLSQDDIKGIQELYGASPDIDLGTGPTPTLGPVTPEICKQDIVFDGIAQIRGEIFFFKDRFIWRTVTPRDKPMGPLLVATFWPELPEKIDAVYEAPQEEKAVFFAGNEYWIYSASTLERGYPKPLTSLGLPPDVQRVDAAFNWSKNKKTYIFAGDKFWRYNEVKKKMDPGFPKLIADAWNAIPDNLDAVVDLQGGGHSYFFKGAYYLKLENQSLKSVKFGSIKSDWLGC
Here is the method:
as §1, §2, §3

The target of a further experiment is T2, MMP-14 (Homo sapiens, UniProt P50281).
T2 construct: purchased Calbiochem
Here is the method: as §1, §2, §3

On to `O=C(CCCNC(=O)c1cccc(C(=O)NCCCC(=O)NCC[C@@H](NS(=O)(=O)c2ccc(-c3ccccc3)cc2)C(=O)NO)c1)NCC[C@@H](NS(=O)(=O)c1ccc(-c2ccccc2)cc1)C(=O)NO` [1b - example 16], for which the IC50 against MMP-13 came to 2.4 nM; against MMP-2, 3.7 nM; on MMP-14, 31 nM.

Regarding `O=C(NCC[C@H](C(=O)NO)N(OCCOCCN1CCN(C(=O)c2cccc(C(=O)N3CCN(CCOCCON([C@H](CCNC(=O)OCc4ccccc4)C(=O)NO)S(=O)(=O)c4ccc(-c5ccccc5)cc4)CC3)c2)CC1)S(=O)(=O)c1ccc(-c2ccccc2)cc1)OCc1ccccc1` [2b - example 17], the IC50 was 1.93 nM on MMP-13 and 3.6 nM against MMP-2.
